For this assay, the target named is T1, CHK1 kinase (Homo sapiens, UniProt O14757).
T1 construct: glutathione S-transferase (GST); made in house; host or cells: Sf21 insect cells (S. frugiperda), baculovirus
T1 sequence (O14757 1-476): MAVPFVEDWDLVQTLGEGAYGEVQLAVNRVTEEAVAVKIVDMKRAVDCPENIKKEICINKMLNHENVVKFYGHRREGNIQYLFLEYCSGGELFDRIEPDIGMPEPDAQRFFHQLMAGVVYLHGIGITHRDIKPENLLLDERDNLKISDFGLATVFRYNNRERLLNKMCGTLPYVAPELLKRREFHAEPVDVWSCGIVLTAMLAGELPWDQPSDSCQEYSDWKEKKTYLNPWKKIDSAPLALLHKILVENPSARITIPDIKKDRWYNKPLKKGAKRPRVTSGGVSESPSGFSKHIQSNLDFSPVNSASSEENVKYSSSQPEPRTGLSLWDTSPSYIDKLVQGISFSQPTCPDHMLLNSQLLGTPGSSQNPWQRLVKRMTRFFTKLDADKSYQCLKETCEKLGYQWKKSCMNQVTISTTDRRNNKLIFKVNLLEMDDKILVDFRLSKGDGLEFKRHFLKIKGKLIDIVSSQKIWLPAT
Put plainly: Flashplate method (CHK1), measurement of the CHK1 kinase activity. Type of assay: biochemical. To be noted: class symbols; 'Affinity to receptors'. The essentials:
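GST-tagged CHK1 expressed in Sf21 insect cells, incubated at 30 °C with biotinylated CHKtide (0.15 μg per well) and γ33P-ATP in pH 7.5 buffer (EGTA, Mg acetate, mercaptoethanol, 0.1% BSA). Stopped with EDTA, captured on streptavidin Flashplates and counted by scintillation. IC50 set against uninhibited reaction and 0.1 μM staurosporine as zero.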

Results on 34 compounds are retold here after patent US20080234266A1, “Squaric Acid Derivatives II” (priority 2005, published 2008).

A word on the IC50: it is the concentration at which inhibition is half-maximal. A high value points to lower potency. The compound `O=C(O)CC(Nc1c(Nc2ccc3[nH]cnc3c2)c(=O)c1=O)c1cccc(O)c1` (stereo not shown) [Compound A99, 3-[2-(1H-benzimidazol-5-ylamino)-3,4-dioxo-cyclobut-1-enylamino]-3-(3-hydroxyphenyl)-propionic acid] gave an IC50 greater than 1 µM.
Then `Cc1cc(Nc2c(NCc3cccc(O)c3)c(=O)c2=O)cn2ccnc12` [Compound A55, 3-(3-hydroxybenzylamino)-4-(8-methyl-imidazo[1,2-a]pyridin-6-ylamino)cyclobut-3-ene-1,2-dione], with greater than 1 µM.
Then `O=c1c(NCc2ccc(O)c(O)c2)c(Nc2ccc3[nH]cnc3c2)c1=O` [Compound A87, 3-(1H-benzimidazol-5-ylamino)-4-(3,4-di-hydroxybenzylamino)cyclobut-3-ene-1,2-dione], with less than 1 µM.
In turn, `COc1cccc([C@@H](C)Nc2c(Nc3ccc4ncn(C)c4c3)c(=O)c2=O)c1` [Compound A53, 3-[(R)-1-(3-methoxyphenyl)ethylamino]-4-(3-methyl-3H-benzimidazol-5-ylamino)cyclobut-3-ene-1,2-dione] displayed an IC50 of less than 1 µM.
Then `NS(=O)(=O)c1cccc(CNc2c(Nc3ccc4[nH]cnc4c3)c(=O)c2=O)c1` [Compound A6, 3-(1H-benzimidazol-5-ylamino)-4-(3-amino-sulfonylbenzylamino)cyclobut-3-ene-1,2-dione], with less than 1 µM.
Then “3-(8-bromoimidazo[1,2-a]pyridin-6-ylamino)-4-[(R)-1-(3-methoxyphenyl)ethylamino]-cyclobut-3-ene-1,2-dione [Compound A63]”, with greater than 1 µM; and “3-(8-bromoimidazo[1,2-a]pyridin-6-ylamino)-4-(3-hydroxybenzylamino)cyclobut-3-ene-1,2-dione [Compound A60]”, with less than 1 µM; and `COCCn1cnc2ccc(Nc3c(NCc4cccc(S(N)(=O)=O)c4)c(=O)c3=O)cc21` [Compound A70, 3-[3-(2-methoxyethyl)-3H-benzimidazol-5-ylamino]-4-(3-aminosulfonylbenzylamino)-cyclobut-3-ene-1,2-dione], with greater than 1 µM.
Then `COCCn1cnc2cc(Nc3c(N[C@H](C)c4cccc(OC)c4)c(=O)c3=O)ccc21` [Compound A72, 3-[1-(2-methoxyethyl)-1H-benzimidazol-5-ylamino]-4-[(R)-1-(3-methoxyphenyl)ethyl-amino]cyclobut-3-ene-1,2-dione], with greater than 1 µM.
`O=c1c(NCc2ccc3[nH]cc(-c4ccncc4)c3c2)c(Nc2ccc3[nH]cnc3c2)c1=O` [Compound A102, 3-(1H-benzimidazol-5-ylamino)-4-[(3-pyridin-4-yl-1H-indol-5-ylmethyl)amino]cyclobut-3-ene-1,2-dione] showed an IC50 greater than 1 µM.
On to `Cn1cnc2ccc(Nc3c(NCc4cccc(O)c4)c(=O)c3=O)cc21` [Compound A52, 3-(3-hydroxybenzylamino)-4-(3-methyl-3H-benzimidazol-5-ylamino)cyclobut-3-ene-1,2-dione], for which the IC50 is less than 1 µM.
Then `COc1cccc([C@H](C)Nc2c(Nc3ccc4c(c3)ncn4C)c(=O)c2=O)c1` [Compound A51, 3-[(S)-1-(3-methoxyphenyl)ethylamino]-4-(1-methyl-1H-benzimidazol-5-ylamino)cyclobut-3-ene-1,2-dione], with greater than 1 µM.
Then `O=c1c(NCc2cccc(O)c2)c(Nc2cc(Cl)c3[nH]cnc3c2)c1=O` [Compound A118, 3-(7-chloro-1H-benzimidazol-5-ylamino)-4-(3-hydroxybenzylamino)cyclobut-3-ene-1,2-dione], with less than 1 µM; and `COc1cccc(CNc2c(Nc3ccc4ncsc4c3)c(=O)c2=O)c1` [Compound A122, 3-(benzothiazol-6-ylamino)-4-(3-methoxy-benzylamino)cyclobut-3-ene-1,2-dione], with greater than 1 µM; and `CCOc1cccc(CNc2c(Nc3ccc4[nH]cnc4c3)c(=O)c2=O)c1` [Compound A104, 3-(1H-benzimidazol-5-ylamino)-4-(3-ethoxy-benzylamino)cyclobut-3-ene-1,2-dione], with greater than 1 µM.
Then `NS(=O)(=O)c1ccc(CNc2c(Nc3ccc4[nH]cnc4c3)c(=O)c2=O)cc1` [Compound A151, 3-(1H-benzimidazol-5-ylamino)-4-(4-amino-sulfonylbenzylamino)cyclobut-3-ene-1,2-dione], with greater than 1 µM; and “3-[(R)-1-(3-methoxyphenyl)ethylamino]-4-(7-methylimidazo[1,2-a]pyridin-6-ylamino)-cyclobut-3-ene-1,2-dione [Compound A57]”, with greater than 1 µM.
`O=c1c(NCc2cccc(O)c2)c(Nc2ccc3nccn3c2)c1=O` [Compound A49, 3-(imidazo[1,2-a]pyridin-6-ylamino)-4-(3-hydroxybenzylamino)cyclobut-3-ene-1,2-dione]: the IC50 was less than 1 µM.
In turn, `O=c1c(NCc2cccc(B(O)O)c2)c(Nc2ccc3[nH]cnc3c2)c1=O` [Compound A125, 3-{[2-(1H-benzimidazol-5-ylamino)-3,4-dioxo-cyclobut-1-enylamino]methyl}phenylboronic acid] displayed an IC50 greater than 1 µM.
Then `O=c1c(NCc2ccc(Cl)c(Cl)c2)c(Nc2ccc3[nH]cnc3c2)c1=O` [Compound A162, 3-(1H-benzimidazol-5-ylamino)-4-(3,4-dichlorobenzylamino)cyclobut-3-ene-1,2-dione], with greater than 1 µM; and `CS(=O)(=O)Oc1cccc(CNc2c(Nc3ccc4[nH]cnc4c3)c(=O)c2=O)c1` [Compound A132, 3-(1H-benzimidazol-5-ylamino)-4-(3-methyl-sulfonyloxybenzylamino)cyclobut-3-ene-1,2-dione], with greater than 1 µM.
Then `CN(C)CCNC(=O)CC(Nc1c(Nc2ccc3[nH]cnc3c2)c(=O)c1=O)c1cccc(O)c1` (stereo not shown) [Compound A113, 3-[2-(1H-benzimidazol-5-ylamino)-3,4-dioxo-cyclobut-1-enylamino]-N-(2-dimethylamino-ethyl)-3-(3-hydroxyphenyl)propionamide], with greater than 1 µM; and `O=c1c(NCc2cccc(Cl)c2)c(Nc2ccc3[nH]cnc3c2)c1=O` [Compound A33, 3-(1H-benzimidazol-5-ylamino)-4-(3-chloro-benzylamino)cyclobut-3-ene-1,2-dione], with greater than 1 µM; and `CN(C)Cc1c[nH]c2cc(CNc3c(Nc4ccc5[nH]cnc5c4)c(=O)c3=O)ccc12` [Compound A96, 3-(1H-benzimidazol-5-ylamino)-4-[(3-dimethylaminomethyl-1H-indol-6-ylmethyl)-amino]cyclobut-3-ene-1,2-dione], with greater than 1 µM.
Then `O=c1c(NCc2cccc(C(F)(F)F)c2)c(Nc2ccc3[nH]cnc3c2)c1=O` [Compound A37, 3-(1H-benzimidazol-5-ylamino)-4-(3-trifluoro-methylbenzylamino)cyclobut-3-ene-1,2-dione], with greater than 1 µM; and `O=C(CC(Nc1c(Nc2ccc3[nH]cnc3c2)c(=O)c1=O)c1cccc(O)c1)N1CCOCC1` (stereo not shown) [Compound A105, 3-(1H-benzimidazol-5-ylamino)-4-[1-(3-hydroxyphenyl)-3-morpholin-4-yl-3-oxo-propylamino]cyclobut-3-ene-1,2-dione], with greater than 1 µM; and `CS(=O)(=O)c1ccc(CNc2c(Nc3ccc4[nH]cnc4c3)c(=O)c2=O)cc1` [Compound A150, 3-(1H-benzimidazol-5-ylamino)-4-(4-methyl-sulfonylbenzylamino)cyclobut-3-ene-1,2-dione], with greater than 1 µM.
For the compound `CC[C@@H](Nc1c(Nc2ccc3[nH]cnc3c2)c(=O)c1=O)c1cccc(O)c1` [Compound A120, 3-(1H-benzimidazol-5-ylamino)-4-[(R)-1-(3-hydroxyphenyl)propylamino]cyclobut-3-ene-1,2-dione], the IC50 is less than 1 µM.
Then `O=c1c(NCc2ccc3[nH]c(C(F)(F)F)nc3c2)c(Nc2ccc3[nH]cnc3c2)c1=O` [Compound A90, 3-(1H-benzimidazol-5-ylamino)-4-[(2-trifluoromethyl-1H-benzimidazol-5-ylmethyl)-amino]cyclobut-3-ene-1,2-dione], with greater than 1 µM; and `O=c1c(NCc2ccc3[nH]ccc3c2)c(Nc2ccc3[nH]cnc3c2)c1=O` [Compound A79, 3-(1H-benzimidazol-5-ylamino)-4-[(1H-indol-5-ylmethyl)amino]cyclobut-3-ene-1,2-dione], with greater than 1 µM; and `C[C@@H](Nc1c(Nc2ccc3[nH]cnc3c2)c(=O)c1=O)c1cccc(O)c1` [Compound A3, 3-(1H-benzimidazol-5-ylamino)-4-[(R)-1-(3-hydroxyphenyl)ethylamino]cyclobut-3-ene-1,2-dione], with less than 0.1 µM.
Then `CCCCc1c(Nc2c(NCc3cccc(O)c3)c(=O)c2=O)ccc2[nH]cnc12` [Compound A111, 3-(4-butyl-1H-benzimidazol-5-ylamino)-4-(3-hydroxybenzylamino)cyclobut-3-ene-1,2-dione], with greater than 1 µM; and `Cn1cnc2cc(Nc3c(NCc4cccc(O)c4)c(=O)c3=O)ccc21` [Compound A50, 3-(1-methyl-1H-benzimidazol-5-ylamino)-4-(3-hydroxybenzylamino)cyclobut-3-ene-1,2-dione], with greater than 1 µM; and “3-(1H-benzimidazol-5-ylamino)-4-[(S)-1-(3-hydroxyphenyl)ethylamino]cyclobut-3-ene-1,2-dione [Compound A4]”, with greater than 1 µM.
